Patent US4206215A, “Antimicrobial bis-[4-(substituted-amino)-1-pyridinium]alkanes” (Sterling Drug Inc., priority 1977, dated 1980)
Where two headings read alike, the source gives them in different places.

Assays:
P. mirab. MGH-1 = assay: In vitro antibacterial activity, MIC (modified Autotiter method); assay type: cell-based, Proteus mirabilis; settings: for MIC: Proteus mirabilis, 20 h, read-out: MIC P. mirab. MGH-1
Method: (§1) The antibacterial and antifungal activity of representative examples of the compounds of Formula I was determined using a modification of the Autotiter method described by Goss, et al. Applied Microbiology 16 (9) 1,414-1,416 (1968) in which a 1,000 mcg./ml. solution of the test compound is prepared. To the first cup of the Autotray is added 0.1 ml. of the test solution. Activation of the Autotiter initiates a sequence of operations by which 0.05 ml. of the test compound solution is withdrawn from the cup by a Microtiter transfer loop and diluted in 0.05 ml. of sterile water. Following this operation, 0.05 ml. of inoculated double-strength semisynthetic medium (glucose) is added automatically to each cup. The overall operation results in final drug concentrations ranging from 500 to 0.06 mcg./ml. in twofold decrements. […] The compounds were thus tested as solutions against a variety of gram positive and gram negative bacteria including Staphylococcus aureus, Proteus mirabilis, Escherichia coli, Klebsiella pneumoniae, Pseudomonas aeruginosa, Streptococcus pyogenes, and against such fungi as Aspergillus niger, Candida albicans and Trichophyton mentagrophytes.

A. niger 16404 = assay: In vitro antifungal activity, MIC (modified Autotiter method); assay type: cell-based, Aspergillus niger; settings: for MIC: Aspergillus niger, 16404, 20 h, read-out: MIC A. niger 16404
Method: as §1

Ps. aerug. MGH-2 = assay: In vitro antibacterial activity, MIC (modified Autotiter method); assay type: cell-based, Pseudomonas aeruginosa; settings: for MIC: Pseudomonas aeruginosa, 20 h, read-out: MIC Ps. aerug. MGH-2
Method: as §1

T. menta. 9129 = assay: In vitro antifungal activity, MIC (modified Autotiter method); assay type: cell-based, Trichophyton mentagrophytes; settings: for MIC: Trichophyton mentagrophytes, 20 h, read-out: MIC T. menta. 9129
Method: as §1

S. Aureus Smith = assay: In vitro antibacterial activity, MIC (modified Autotiter method); assay type: cell-based, Staphylococcus aureus; settings: for MIC: Staphylococcus aureus, 20 h, read-out: MIC S. Aureus Smith
Method: as §1

C. albicans Wisc. = assay: In vitro antifungal activity, MIC (modified Autotiter method); assay type: cell-based, Candida albicans; settings: for MIC: Candida albicans, 20 h, read-out: MIC C. albicans Wisc.
Method: as §1

C. albicans 10231 = assay: as above; assay type: cell-based, Candida albicans; settings: for MIC: Candida albicans, 10231, 20 h, read-out: MIC C. albicans 10231
Method: as §1

E. coli 100/B22 = assay: In vitro antibacterial activity, MIC (modified Autotiter method); assay type: cell-based, Escherichia coli; settings: for MIC: Escherichia coli, 100/B22, 20 h
Method: as §1

E. coli AB1932-1 = assay: as above; assay type: cell-based, Escherichia coli; settings: for MIC: Escherichia coli, AB19321, 20 h, read-out: MIC E. coli AB1932-1
Method: as §1

E. coli Vogel = assay: as above; assay type: cell-based, Escherichia coli; settings: for MIC: Escherichia coli, 20 h, read-out: MIC E. coli Vogel
Method: as §1

K. pneum. 39645 = assay: as above; assay type: cell-based, Klebsiella pneumoniae; settings: for MIC: Klebsiella pneumoniae, 20 h, read-out: MIC K. pneum. 39645
Method: as §1

S. pyogen. C203 = assay: as above; assay type: cell-based, Streptococcus pyogenes; settings: for MIC: Streptococcus pyogenes, 20 h, read-out: MIC S. pyogen. C203
Method: as §1

[1] = 18-20 hours at 37° C., read-out: MIC E. coli 100/B22

Row | SMILES | MIC (P. mirab. MGH-1; 18-20 hours at 37° C.) | MIC (A. niger 16404; 18-20 hours at 37° C.) | MIC (Ps. aerug. MGH-2; 18-20 hours at 37° C.) | MIC (T. menta. 9129; 18-20 hours at 37° C.) | MIC (S. Aureus Smith; 18-20 hours at 37° C.) | MIC (C. albicans Wisc.; 18-20 hours at 37° C.) | MIC (C. albicans 10231; 18-20 hours at 37° C.) | MIC (E. coli 100/B22; [1]) | MIC (E. coli AB1932-1; 18-20 hours at 37° C.) | MIC (E. coli Vogel; 18-20 hours at 37° C.) | MIC (K. pneum. 39645; 18-20 hours at 37° C.) | MIC (S. pyogen. C203; 18-20 hours at 37° C.) | further results
1 | Nc1cc[n+](CCCCCCCCCC[n+]2ccc(N)cc2)cc1 [II, 1,10-bis-(4-amino-1-pyridinium)decane dibromide, reference compound] |  |  |  |  |  |  |  |  |  |  |  |  | MIC (P. mirab. MGH-1): > 500 µg/mL; MIC (A. niger 16404): 125 µg/mL; MIC (Ps. aerug. MGH-2): 500 µg/mL; MIC (T. menta. 9129): 15.6 µg/mL; MIC (S. Aureus Smith): 7.8 µg/mL; MIC (C. albicans Wisc.): 62.5 µg/mL; MIC (C. albicans 10231): 250 µg/mL; MIC (E. coli 100/B22; read-out: MIC E. coli 100/B22, 18-20 hours at 37° C.): 62.5 µg/mL; MIC (E. coli AB1932-1): 31.3 µg/mL; MIC (E. coli Vogel): 62.5 µg/mL; MIC (K. pneum. 39645): 250 µg/mL; MIC (S. pyogen. C203): 7.8 µg/mL
2 | CCCCCCNc1cc[n+](CCCCCCCC[n+]2ccc(NCCCCCC)cc2)cc1 [Example 32, 1,8-bis-[4-(hexylamino)-1-pyridinium]octane dibromide] | > 250 µg/mL | 7.8 µg/mL | 125 µg/mL | 7.8 µg/mL | 0.24 µg/mL | 3.9 µg/mL | 3.9 µg/mL | 3.9 µg/mL | 1.95 µg/mL | 3.9 µg/mL | 7.8 µg/mL | 0.49 µg/mL | 
3 | CCCCCCCCCNc1cc[n+](CCCCCC[n+]2ccc(NCCCCCCCCC)cc2)cc1 [Example 47, 1,6-bis-[4-(nonylamino)-1-pyridinium]-hexane dibromide] | 3.9 µg/mL |  | 15.6 µg/mL | 1 µg/mL | 0.5 µg/mL | 1.95 µg/mL | 3.9 µg/mL | 1.95 µg/mL | 1.95 µg/mL | 1 µg/mL | 3.9 µg/mL | 1 µg/mL | MIC A. niger 16404 (A. niger 16404; 18-20 hours at 37° C.): 15.6 µg/mL
4 | CCCCCCCCCCCCNc1cc[n+](CCCCCCCCC[n+]2ccc(NCCCCCCCCCCCC)cc2)cc1 [Example 73, 1,9-bis-[4-(dodecylamino)-1-pyridinium]nonane dibromide] | 62.5 µg/mL | > 62.5 µg/mL | > 62.5 µg/mL | 7.8 µg/mL | 7.8 µg/mL | 31.3 µg/mL | > 62.5 µg/mL | 62.5 µg/mL | > 62.5 µg/mL | 62.5 µg/mL | > 62.5 µg/mL | 15.6 µg/mL | 
5 | CCCCCCCCCNc1cc[n+](CCCCCC[n+]2ccc(NCCCCCCCCC)cc2)cc1 [Example 48] |  |  |  |  |  |  |  |  |  |  |  |  | MIC P. mirab. MGH-1 (P. mirab. MGH-1; 18-20 hours at 37° C.): 7.8 µg/mL; MIC A. niger 16404 (A. niger 16404; 18-20 hours at 37° C.): 3.9 µg/mL; MIC Ps. aerug. MGH-2 (Ps. aerug. MGH-2; 18-20 hours at 37° C.): 15.6 µg/mL; MIC T. menta. 9129 (T. menta. 9129; 18-20 hours at 37° C.): 1.0 µg/mL; MIC S. Aureus Smith (S. Aureus Smith; 18-20 hours at 37° C.): 1.0 µg/mL; MIC C. albicans Wisc. (C. albicans Wisc.; 18-20 hours at 37° C.): 1.95 µg/mL; MIC C. albicans 10231 (C. albicans 10231; 18-20 hours at 37° C.): 1.95 µg/mL; MIC E. coli 100/B22 (E. coli 100/B22; 18-20 hours at 37° C.): 1.95 µg/mL; MIC E. coli AB1932-1 (E. coli AB1932-1; 18-20 hours at 37° C.): 1.95 µg/mL; MIC E. coli Vogel (E. coli Vogel; 18-20 hours at 37° C.): 1.95 µg/mL; MIC K. pneum. 39645 (K. pneum. 39645; 18-20 hours at 37° C.): 3.9 µg/mL; MIC S. pyogen. C203 (S. pyogen. C203; 18-20 hours at 37° C.): 1.0 µg/mL
6 | Clc1ccc(Nc2cc[n+](CCCCCC[n+]3ccc(Nc4ccc(Cl)cc4)cc3)cc2)cc1 [Example 77B, 1,6-bis-[4-(p-chlorophenylamino)-1-pyridinium]hexane dimethanesulfonate] | 500 µg/mL | 62.5 µg/mL | 500 µg/mL | 15.6 µg/mL | 3.9 µg/mL | 125 µg/mL | 62.5 µg/mL | 15.6 µg/mL | 3.9 µg/mL | 15.6 µg/mL | 500 µg/mL | 1.95 µg/mL | 
7 | Clc1ccc(Nc2cc[n+](CCCCCCCC[n+]3ccc(Nc4ccc(Cl)cc4)cc3)cc2)cc1 [Example 78B, 1,8-bis-[4-(p-chlorophenylamino)-1-pyridinium]octane dimethanesulfonate] | 125 µg/mL | 31.3 µg/mL | 125 µg/mL | 31.3 µg/mL | 0.4 µg/mL | 62.5 µg/mL | 62.5 µg/mL | 3.1 µg/mL | 1.6 µg/mL | 3.1 µg/mL | 31.3 µg/mL | 0.2 µg/mL | 
